The record followed here is patent publication US20230321171A1, “ANTI-COCCIDIAL COMPOSITION COMPRISING MANGOSTEEN AND USES THEREOF” (CJ CHEILJEDANG CORPORATION, priority 2020, published 2023).

In series [1] the test system is MDBK(Madin-Darby Bovine Kidney Epithelial Cells). Kind of series: Cytotoxicity, MTS analysis, MDBK. The following applies: 3.1~500 ppm/well, 14 hours + 2 hours MTS, vs 5% DMSO treatment group. An excerpt: (§1) In the present example, using MTS analysis method (3-(4,5-[…])-5-(3-carboxymethoxyphenyl)-2-(4-sulfophenyl)-2H-tetrazolium, promega, USA), an effect on survival of cells of the mangosteen extract was investigated.
(§2) The cell lines utilized in cytotoxicity evaluation were (1) MDBK(Madin-Darby Bovine Kidney Epithelial Cells) and (2) RAW264.7(Mouse macrophage cell), and all of them were purchased from ATCC and used.
(§3) Each cell was aliquoted at a concentration of 1×10^5 cell/well in a 96-well cell culture plate, and cultured at 37° C. for 24 hours, and then each material (mangosteen extract, xanthone, alpha-mangostin and epicatechin) was treated by concentration (3.1˜500 ppm/well) and cultured at a temperature of 37° C.

Series [2] relates to Eimeria acervulina. Kind of series: Protozoan (sporozoite) direct killing ability, Eimeria acervulina. Type of series: cell-based. The following applies: for Eimeria acervulina protozoal death rate (%): compared to PBS-treated negative control group; for Minimum concentration for killing 100% protozoa (ppm), Eimeria acervulina: tested 1 to 500 ppm. How it is done:
In the present example, protozoan (sporozoite) direct killing ability evaluation was conducted against 3 representative Eimeria kinds known to be infected in most farms (E. tenella, E. acervulina, E. maxima).
A certain amount of oocysts of each protozoan was put in a tube containing glass beads and pulverized, and then to remove the crushed oocyst cell wall and other debris, internal sporocysts were purified using the percoll density gradient, and washed with PBS solution. A reagent comprising sodium taurocholic acid (Sigma aldrich, USA) and trypsin (Gibco, USA), respectively, was treated to sporocysts of Eimeria tenella, Eimeria acervulina and Eimeria maxima for excystation and they were incubated, and then they were washed with PBS solution once and protozoa were obtained.
After reacting the mangosteen pericarp extract, epicatechin, alpha-mangostin, xanthone and anticoccidial agents, salinomycin and diclazuril (hereinafter, material) with 3 kinds of Eimeria protozoa at various concentrations of 1 to 500 ppm, respectively, only alive protozoa (sporozoites) were counted through microscopic observation. Then, the death rate (%) of the protozoa when each material was treated compared to the PBS-treated negative control group was calculated and shown in Table 8 to Table 10 and Table 12, respectively, and the minimum concentration which directly killed the protozoa by 100% was shown in Table 11 below.

Series [3] concerns RAW264.7(Mouse macrophage cell). Kind of series: Cytotoxicity, MTS analysis, RAW264.7. The following applies: 3.1~500 ppm/well, 14 hours + 2 hours MTS, vs 5% DMSO treatment group.
Description: as §1, §2, §3

A short description of series [4]: Broiler growth effect (daily weight gain) due to intake in feed. Type of series: in vivo, Ross broilers. To be noted: for End body weight: non-infected broilers. The protocol: An efficacy evaluation test was performed in an animal experiment facility in Gyeongsangnam-do, South Korea. One-day-old female Ross broilers were individually weighed and randomly divided into groups to use in an experiment. Matters and conditions for experimental design were described in Table 16.
A breeding farm was managed according to the Korean poultry breeding management guidelines. Cages and the breeding farm were cleaned and disinfected before starting the test. The temperature of […] and the humidity of 40 to 50% of the breeding farm were maintained, and it was continuously monitored.
For the feed, Korea Feed A1-choi product was used, and each material (salinomycin (Cheil Bio Cheilsalino-60 product), xanthone (Sigma Aldrich X600 product), and the mangosteen extract prepared in Example 1-2 above) was added to the feed, respectively, at a concentration described in Table 17 below to be self-mixed. Antibiotics and supplements were not used in general feed and mixed feed, and no anticoccidial agent other than each material was added. Broilers were fed ad libitum throughout the experiment period. After putting 20 1-day-age broilers in cages randomly placed for each of the control group or test group and breeding, general feed was fed for 7 days, and then the mixed feed prepared above was ingested by dividing by control group or test group. The feed formulation administered to the control group (negative control group or positive control group) and test group was described in Table 17 below.
The body weight before feeding and on the 7th day after feeding the feed of Table 16 above into individuals was measured, and the difference was divided by the number of days to calculate the daily weight gain (ADG, g/d), and the result was shown in Table 18. For comparison between 6 treatment groups, Duncan post-test multiple comparison method was used, and statistical significance was verified using a SAS statistical program, and the result was shown in Table 18.

The mark [5] stands for this setting: formulated feed 125 ppm for 7 days.
Where [6] appears, read: formulated feed 250 ppm for 7 days.

Structures are written as SMILES.

Regarding `O=c1c2ccccc2oc2ccccc12` [Xanthone, xanthone], the “Minimum concentrataion of cytotoxicity at which cells of 50% or more survive (ppm)” value in series [1] and in series [3] was no less than 62.5 ppm throughout. In addition, the “Eimeria acervulina protozoal death rate (%)” value in series [2] (1 ppm), in series [2] (5 ppm), in series [2] (10 ppm), in series [2] (50 ppm), in series [2] (100 ppm) and in series [2] (125 ppm) was 0% each time. Also, the “Eimeria acervulina protozoal death rate (%)” value in series [2] (250 ppm) was 11%; in series [2] (500 ppm), 25%. Besides, the “Minimum concentration for killing 100% protozoa (ppm), Eimeria acervulina” value in series [2] and in series [2] (listed as xanthone) was greater than 500 ppm in each case. For the same compound, in series [4] (Table 18, Duncan p < 0.05, mangosteen extract also vs positive control and xanthone groups), the “Daily weight gain compared to the negative control group, in words” value is “rather reduced”. In addition, the entries for the “Daily weight gain (ADG)” value in series [4] (setting [5]) and in series [4] (setting [6]) were 43.86 g/day and 40.57 g/day, respectively. Moreover, the results for the “End-initial body weight (7 days, g)” value in series [4] (setting [5]) and in series [4] (setting [6]) were 307 g and 284 g, respectively. The figures for the “End body weight” value in series [4] (setting [5]) and in series [4] (setting [6]) were 509 g and 485 g, respectively.
